Source: US10669283B2, “Compound and pharmacologically acceptable salt thereof” (MEIJI SEIKA PHARMA CO., LTD., priority 2016, dated 2020)

system: PDE4; experiment: PDE4 inhibition, scintillation proximity assay (SPA); assay type: biochemical; details: scintillation proximity assay (SPA); evaluated as classes A, B, C; read-out: PDE4 Inhibitory Activity (concentration for the inhibition rate of 50%);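 on PDE4 Inhibitory Activity (concentration for the inhibition rate of 50%): A below 100 nM B 100 to below 1000 nM C 1000 nM or more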
Method in brief: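 Compound pre-diluted 1:10 in 50 mM Tris-HCl pH 7.4, 8.3 mM MgCl2, 1.7 mM EGTA, 3 mg/mL BSA, then incubated with PDE4 and [2,8-3H]-cAMP for 120 min at room temperature. Product captured on ZnSO4-containing YSi-SPA beads for 15 min; radioactivity counted against no-enzyme blank and DMSO control.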

Question: CCOC(=O)c1cc(-n2cccn2)c2oc(N3CC4CCC(C3)N4)nc2c1 [Example 90, Ethyl 2-(3,8-diazabicyclo[3.2.1]octan-3-yl)-7-(1H-pyrazol-1-yl)benzo[d]oxazole-5-carboxylate] was tested. Which IC50 did it give?
Answer: Its IC50 is 100 to 1000 nM.

Question: For c1csc(-c2cc(OCC3COC3)cc3nc(N4CC5CCC(C4)N5)oc23)n1 [Example 70, 2-(3,8-Diazabicyclo[3.2.1]octan-3-yl)-5-(oxetan-3-ylmethoxy)-7-(thiazol-2-yl)benzo[d]oxazole], which IC50 is on record?
Answer: The IC50 was less than 100 nM.

Question: How did the IC50 turn out when COC(c1ccc(-c2nccs2)c2oc(N3CC4CCC(C3)N4)nc12)C(F)(F)F (stereo not shown) [Example 222, 2-(3,8-Diazabicyclo[3.2.1]octan-3-yl)-7-(thiazol-2-yl)-4-(2,2,2-trifluoro-1-methoxyethyl)benzo[d]oxazole] was run?
Answer: The IC50 was less than 100 nM.

Question: Which IC50 does the source give for OC(c1cc(-c2cscn2)c2oc(N3CC4CCC(C3)N4)nc2c1OC(F)(F)F)C(F)F (stereo not shown) [Example 303, 1-(2-(3,8-Diazabicyclo[3.2.1]octan-3-yl)-7-(thiazol-4-yl)-4-(trifluoromethoxy)benzo[d]oxazol-5-yl)-2,2-difluoroethan-1-ol] here?
Answer: The IC50 was less than 100 nM.

Question: With O=C(c1ccc(-c2nccs2)c2oc(N3CC4CCC(C3)N4)nc12)N1CCCCC1 [Example 117, (2-(3,8-Diazabicyclo[3.2.1]octan-3-yl)-7-(thiazol-2-yl)benzo[d]oxazol-4-yl)(piperidin-1-yl)methanone] as the molecule, how does the IC50 read?
Answer: Its IC50 is less than 100 nM.

Question: OC(c1cc(-c2nccs2)c2oc(N3CC4CCC(C3)N4)nc2c1OC(F)(F)F)C(F)F (stereo not shown) [Example 206, 1-(2-(3,8-Diazabicyclo[3.2.1]octan-3-yl)-7-(thiazol-2-yl)-4-(trifluoromethoxy)benzo[d]oxazol-5-yl)-2,2-difluoroethan-1-ol] was tested. Which IC50 did it give?
Answer: The IC50 was less than 100 nM.

Question: With CC(O)(c1cc(-c2nccs2)c2oc(N3CC4CCC(C3)N4)nc2c1OC(F)(F)F)C(F)(F)F (stereo not shown) [Example 217, 2-(2-(3,8-Diazabicyclo[3.2.1]octan-3-yl)-7-(thiazol-2-yl)-4-(trifluoromethoxy)benzo[d]oxazol-5-yl)-1,1,1-trifluoropropan-2-ol] as the molecule, how does the IC50 read?
Answer: The IC50 was less than 100 nM.

Question: How did the IC50 turn out when CN(CCO)C(=O)c1cc(-c2nccs2)c2oc(N3CC4CCC(C3)N4)nc2c1OC(F)(F)F [Example 193, 2-(3,8-Diazabicyclo[3.2.1]octan-3-yl)-N-(2-hydroxyethyl)-N-methyl-7-(thiazol-2-yl)-4-(trifluoromethoxy)benzo [d]oxazole-5-carboxamide] was run?
Answer: The IC50 was less than 100 nM.

Question: Which IC50 does the source give for CC(O)c1cc(-c2nccs2)c2oc(N3CC4CC(C3)N4)nc2c1OC(F)(F)F (stereo not shown) [Example 203, 1-(2-(3,6-Diazabicyclo[3.1.1]heptan-3-yl)-7-(thiazol-2-yl)-4-(trifluoromethoxy)benzo[d]oxazol-5-yl)ethan-1-ol] here?
Answer: Its IC50 is less than 100 nM.

Question: How did the IC50 turn out when CN(C)Cc1cc(-c2nccs2)c2oc(N3CC4CCC(C3)N4)nc2c1 [Example 169, 1-(2-(3,8-Diazabicyclo[3.2.1]octan-3-yl)-7-(thiazol-2-yl)benzo[d]oxazol-5-yl)-N,N-dimethylmethanamine] was run?
Answer: The IC50 was less than 100 nM.

Question: How did the IC50 turn out when Clc1ccc(-c2nccs2)c2oc(N3CC4CCCC(C3)N4)nc12 [Example 38, 2-(3,9-Diazabicyclo[3.3.1]nonan-3-yl)-4-chloro-7-(thiazol-2-yl)benzo[d]oxazole] was run?
Answer: The IC50 was less than 100 nM.

Question: With CC(O)(c1ccc(-c2nccs2)c2oc(N3CC4CCC(C3)N4)nc12)C(F)(F)F (stereo not shown) [Example 236, 2-(2-(3,8-Diazabicyclo[3.2.1]octan-3-yl)-7-(thiazol-2-yl)benzo[d]oxazol-4-yl)-1,1,1-trifluoropropan-2-ol] as the molecule, how does the IC50 read?
Answer: Its IC50 is less than 100 nM.

Question: With N#CC1CC(Oc2ccc(-c3nccs3)c3oc(N4CC5CC(C4)N5)nc23)C1 (stereo not shown) [Example 266, 3-((2-(3,6-Diazabicyclo[3.1.1]heptan-3-yl)-7-(thiazol-2-yl)benzo[d]oxazol-4-yl)oxy)cyclobutane-1-carbonitrile] as the molecule, how does the IC50 read?
Answer: Its IC50 is less than 100 nM.

Question: How did the IC50 turn out when CC(O)(c1ccc(-c2nccs2)c2oc(N3CC4CC(C3)N4)nc12)C(F)F (stereo not shown) [Example 297, 2-(2-(3,6-Diazabicyclo[3.1.1]heptan-3-yl)-7-(thiazol-2-yl)benzo[d]oxazol-4-yl)-1,1-difluoropropan-2-ol] was run?
Answer: Its IC50 is less than 100 nM.

Question: With OCCOC(c1ccc(-c2nccs2)c2oc(N3CC4CC(C3)N4)nc12)C(F)(F)F (stereo not shown) [Example 227, 2-(1-(2-(3,6-Diazabicyclo[3.1.1]heptan-3-yl)-7-(thiazol-2-yl)benzo[d]oxazol-4-yl)-2,2,2-trifluoroethoxy)ethan-1-ol] as the molecule, how does the IC50 read?
Answer: Its IC50 is less than 100 nM.

Question: Which IC50 does the source give for CC(C)(O)COc1ccc(-c2nccs2)c2oc(N3CC4CCC(C3)N4)nc12 [Example 264, 1-((2-(3,8-Diazabicyclo[3.2.1]octan-3-yl)-7-(thiazol-2-yl)benzo[d]oxazol-4-yl)oxy)-2-methylpropan-2-ol] here?
Answer: Its IC50 is less than 100 nM.

Question: How did the IC50 turn out when COC(c1ccc(-c2nccs2)c2oc(N3CC4CC(C3)N4)nc12)C(F)F (stereo not shown) [Example 130, 2-(3,6-Diazabicyclo[3.1.1]heptan-3-yl)-4-(2,2-difluoro-1-methoxyethyl)-7-(thiazol-2-yl)benzo[d]oxazole] was run?
Answer: The IC50 was less than 100 nM.

Question: For CC(O)C(F)(F)OC(c1ccc(-c2nccs2)c2oc(N3CC4CC(C3)N4)nc12)C(F)(F)F (stereo not shown) [Example 265, 1-(1-(2-(3,6-Diazabicyclo[3.1.1]heptan-3-yl)-7-(thiazol-2-yl)benzo[d]oxazol-4-yl)-2,2,2-trifluoroethoxy)-1,1-difluoropropan-2-ol], which IC50 is on record?
Answer: Its IC50 is less than 100 nM.

Question: With CC(O)(c1ccc(-c2nccs2)c2oc(N3CC4CC(C3)N4)nc12)C(F)(F)F (stereo not shown) [Example 270, 2-(2-(3,6-Diazabicyclo[3.1.1]heptan-3-yl)-7-(thiazol-2-yl)benzo[d]oxazol-4-yl)-1,1,1-trifluoropropan-2-ol] as the molecule, how does the IC50 read?
Answer: The IC50 was less than 100 nM.

Question: Which IC50 does the source give for OC(c1cc(-c2nccs2)c2oc(N3CC4CCC(C3)N4)nc2c1)C(F)(F)F (racemic) [Example 137, 1-(2-(3,8-Diazabicyclo[3.2.1]octan-3-yl)-7-(thiazol-2-yl)benzo[d]oxazol-5-yl)-2,2,2-trifluoroethan-1-ol] here?
Answer: Its IC50 is less than 100 nM.

Question: How did the IC50 turn out when CC(C)(O)c1ccc(-c2nccs2)c2oc(N3CC4CCC(C3)N4)nc12 [Example 247, 2-(2-(3,8-Diazabicyclo[3.2.1]octan-3-yl)-7-(thiazol-2-yl)benzo[d]oxazol-4-yl)propan-2-ol] was run?
Answer: The IC50 was less than 100 nM.

Question: How did the IC50 turn out when C=CCOc1cc(-c2nccs2)c2oc(N3CC4CCC(C3)N4)nc2c1 [Example 72, 5-(Allyloxy)-2-(3,8-diazabicyclo[3.2.1]octan-3-yl)-7-(thiazol-2-yl)benzo[d]oxazole] was run?
Answer: Its IC50 is less than 100 nM.

Question: CC(=O)c1cc(-c2nccs2)c2oc(N3CC4CC(C3)N4)nc2c1C(F)(F)F [Example 180, 1-(2-(3,6-Diazabicyclo[3.1.1]heptan-3-yl)-7-(thiazol-2-yl)-4-(trifluoromethyl)benzo[d]oxazol-5-yl)ethan-1-one] was tested. Which IC50 did it give?
Answer: The IC50 was less than 100 nM.

Question: Which IC50 does the source give for OC(c1cc(-c2nccs2)c2oc(N3CC4CCC(C3)N4)nc2c1)C(F)(F)F (stereo not shown) [Example 139, 1-(2-(3,8-Diazabicyclo[3.2.1]octan-3-yl)-7-(thiazol-2-yl)benzo[d]oxazol-5-yl)-2,2,2-trifluoroethan-1-ol] here?
Answer: Its IC50 is less than 100 nM.

Question: With CN(C)C(=O)c1cc(-c2nccs2)c2oc(N3CC4CCC(C3)N4)nc2c1 [Example 94, 2-(3,8-Diazabicyclo[3.2.1]octan-3-yl)-N,N-dimethyl-7-(thiazol-2-yl)benzo[d]oxazole-5-carboxamide] as the molecule, how does the IC50 read?
Answer: Its IC50 is less than 100 nM.

Question: For FC(F)(F)c1c(Cl)cc(-n2cccn2)c2oc(N3CC4CCCC(C3)N4)nc12 [Example 16, 2-(3,9-Diazabicyclo[3.3.1]nonan-3-yl)-5-chloro-7-(1H-pyrazol-1-yl)-4-(trifluoromethyl)benzo[d]oxazole], which IC50 is on record?
Answer: Its IC50 is less than 100 nM.

Question: How did the IC50 turn out when FC(F)(F)Oc1cc(-c2nccs2)c2oc(N3CC4CCCC(C3)N4)nc2c1 [Example 55, 2-(3,9-Diazabicyclo[3.3.1]nonan-3-yl)-7-(thiazol-2-yl)-5-(trifluoromethoxy)benzo[d]oxazole] was run?
Answer: The IC50 was less than 100 nM.

Question: With CC(=O)c1cc(-c2nccs2)c2oc(N3CC4CC(C3)N4)nc2c1OC(F)(F)F [Example 212, 1-(2-(3,6-Diazabicyclo[3.1.1]heptan-3-yl)-7-(thiazol-2-yl)-4-(trifluoromethoxy)benzo[d]oxazol-5-yl)ethan-1-one] as the molecule, how does the IC50 read?
Answer: The IC50 was less than 100 nM.

Question: Which IC50 does the source give for OC1(c2cc(-c3nccs3)c3oc(N4CC5CCC(C4)N5)nc3c2OC(F)(F)F)CC1 [Example 274, 1-(2-(3,8-Diazabicyclo[3.2.1]octan-3-yl)-7-(thiazol-2-yl)-4-(trifluoromethoxy)benzo[d]oxazol-5-yl)cyclopropan-1-ol] here?
Answer: The IC50 was less than 100 nM.

same assay, conditions: scintillation proximity assay; class symbols; read-out: PDE4 Inhibitory Activity

Question: With CC(O)c1cc(-c2nccs2)c2oc(N3CC4CCC(C3)N4O)nc2c1OC(F)(F)F (stereo not shown) [Example 383, 3-(5-(1-hydroxy-ethyl)-7-(thiazol-2-yl)-4-(trifluoro-methoxy)benzo [d]oxazol-2-yl)-3,8-diazabicyclo[3.2.1] octan-8-ol] as the molecule, how does the IC50 read?
Answer: The IC50 was greater than 1000 nM.

Question: FC(F)(Oc1ccc(-c2nccs2)c2oc(N3CC4CC(C3)N4)nc12)c1nc2ccccc2o1 [Example 403, 4-(benzo [d]oxazol-2-yldifluoro-methoxy)-2-(3,6-diazabicyclo [3.1.1]heptan-3-yl)-7-(thiazol-2-yl)benzo[d] oxazole] was tested. Which IC50 did it give?
Answer: The IC50 was less than 100 nM.

Question: For FC(F)(/C=C/c1cccnc1)Oc1ccc(-c2nccs2)c2oc(N3CC4CC(C3)N4)nc12 [Example 406, (E)-2-(3,6-diazabicyclo [3.1.1]heptan-3-yl)-4-((1,1-difluoro-3-(pyridin-3-yl)allyl)oxy)-7-(thiazol-2-yl) benzo[d] oxazole], which IC50 is on record?
Answer: The IC50 was less than 100 nM.

Question: With OC(c1ccc(-c2nccs2)c2oc(N3CC4CCC(C3)N4O)nc12)C(F)(F)F (stereo not shown) [Example 378, 3-(7-(thiazol-2-yl)-4-(2,2,2-trifluoro-1-hydroxyethyl)benzo[d]oxazol-2-yl)-3,8-diazabicyclo[3.2.1] octan-8-ol] as the molecule, how does the IC50 read?
Answer: Its IC50 is 100 to 1000 nM.

Question: Which IC50 does the source give for NS(=O)(=O)c1ccc(-c2nccs2)c2oc(N3CC4CC(C3)N4)nc12 [Example 396, 2-(3,6-diazabicyclo[3.1.1]heptan-3-yl)-7-(thiazol-2-yl) benzo[d]oxazole-4-sulfonamide] here?
Answer: Its IC50 is less than 100 nM.
